Drawing on paper PMC12673733, “Hydroxyethylamine & phthalimide analogs restoring defects due to GNE dysfunction: rare disease therapeutic significance” (Molecular Medicine, 2025), this text covers Kd for 1 compound.

As usually defined, the Kd is a measure of binding affinity in units of concentration.

This experiment has as its target T1, r-wtGNE (hGNE1; recombinant wild type GNE) (Homo sapiens, UniProt Q9Y223).
T1 construct: recombinant full-length GNE; expressed in E. coli, partially purified (methods also name pcDNA3.1 vector)
T1 sequence (Q9Y223 1-722): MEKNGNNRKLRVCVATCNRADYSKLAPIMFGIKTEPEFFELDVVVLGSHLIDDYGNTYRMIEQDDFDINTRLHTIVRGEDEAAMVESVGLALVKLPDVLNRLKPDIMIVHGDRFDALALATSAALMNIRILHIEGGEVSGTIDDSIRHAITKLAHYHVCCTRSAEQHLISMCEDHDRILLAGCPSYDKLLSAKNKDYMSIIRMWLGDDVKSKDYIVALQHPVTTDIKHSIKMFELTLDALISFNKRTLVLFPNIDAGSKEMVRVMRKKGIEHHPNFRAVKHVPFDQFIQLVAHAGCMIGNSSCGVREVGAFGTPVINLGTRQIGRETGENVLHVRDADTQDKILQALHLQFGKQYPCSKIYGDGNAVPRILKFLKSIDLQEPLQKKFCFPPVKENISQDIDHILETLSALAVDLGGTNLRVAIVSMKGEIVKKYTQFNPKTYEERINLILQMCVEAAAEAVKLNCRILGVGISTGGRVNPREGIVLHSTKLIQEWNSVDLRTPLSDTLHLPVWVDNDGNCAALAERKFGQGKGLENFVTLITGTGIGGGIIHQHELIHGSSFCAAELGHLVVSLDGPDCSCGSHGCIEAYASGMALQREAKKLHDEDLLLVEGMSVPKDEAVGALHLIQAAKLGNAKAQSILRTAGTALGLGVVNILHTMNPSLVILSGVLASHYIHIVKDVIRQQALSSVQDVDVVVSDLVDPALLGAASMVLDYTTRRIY
Briefly: SPR, GNE immobilised on gold chip. In kind it is binding.

On to `C[C@H](C(=O)N[C@@H](Cc1ccccc1)[C@@H](O)CN1CCN(Cc2ccccc2)CC1)c1ccccc1` [LTC-181, (S)-N-((2 S,3 S)−4-(4-benzylpiperazin-1-yl)−3-hydroxy-1-phenylbutan-2-yl)−2-phenylpropanamide], for which the Kd came to 3 mM.
